From publication PMC8895463 (Journal of Agricultural and Food Chemistry, 2022)

Target: T1, CYP3A4 (Homo sapiens, UniProt P08684)
T1 construct: recombinant; E. coli microsomes; with NADPH cytochrome P450 reductase (POR, P16435), coexpressed
Experiment: fluorogenic Vivid BOMR substrate assay with recombinant CYP3A4/POR E. coli microsomes
Format: biochemical

T1 sequence (P08684 13-503 S18F): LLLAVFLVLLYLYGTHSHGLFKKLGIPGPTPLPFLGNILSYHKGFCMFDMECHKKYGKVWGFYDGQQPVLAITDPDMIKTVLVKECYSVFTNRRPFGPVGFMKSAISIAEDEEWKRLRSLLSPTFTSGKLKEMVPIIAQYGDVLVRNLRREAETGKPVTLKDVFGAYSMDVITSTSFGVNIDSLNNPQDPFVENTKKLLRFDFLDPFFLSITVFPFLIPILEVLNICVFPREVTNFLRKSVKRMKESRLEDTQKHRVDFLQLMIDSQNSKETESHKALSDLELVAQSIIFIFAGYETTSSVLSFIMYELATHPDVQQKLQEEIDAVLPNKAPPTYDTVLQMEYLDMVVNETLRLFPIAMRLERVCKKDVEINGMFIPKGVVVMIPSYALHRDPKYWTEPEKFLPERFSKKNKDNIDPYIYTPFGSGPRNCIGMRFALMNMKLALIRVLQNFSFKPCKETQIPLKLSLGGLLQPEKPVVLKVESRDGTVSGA
T1 sequence (P16435 2-677, further chain): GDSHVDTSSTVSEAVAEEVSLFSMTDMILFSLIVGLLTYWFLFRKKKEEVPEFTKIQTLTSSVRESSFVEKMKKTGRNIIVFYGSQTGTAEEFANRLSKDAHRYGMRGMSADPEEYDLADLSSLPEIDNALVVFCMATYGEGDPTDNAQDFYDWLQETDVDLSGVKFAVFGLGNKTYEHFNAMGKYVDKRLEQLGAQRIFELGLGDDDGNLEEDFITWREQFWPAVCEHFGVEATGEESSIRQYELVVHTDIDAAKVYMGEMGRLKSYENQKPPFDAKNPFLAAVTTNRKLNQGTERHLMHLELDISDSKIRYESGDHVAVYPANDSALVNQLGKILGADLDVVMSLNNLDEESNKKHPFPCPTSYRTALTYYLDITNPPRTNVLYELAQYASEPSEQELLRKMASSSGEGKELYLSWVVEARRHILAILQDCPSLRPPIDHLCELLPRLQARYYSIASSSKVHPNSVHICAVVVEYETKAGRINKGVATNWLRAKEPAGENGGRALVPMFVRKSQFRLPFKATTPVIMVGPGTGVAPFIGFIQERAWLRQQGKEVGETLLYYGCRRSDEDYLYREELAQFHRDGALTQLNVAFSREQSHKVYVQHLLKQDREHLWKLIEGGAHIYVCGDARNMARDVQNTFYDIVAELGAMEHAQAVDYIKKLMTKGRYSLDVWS

COc1ccc(-c2cc(=O)c3c(O)cc(O)cc3o2)cc1-c1c(O)cc(O)c2c(=O)cc(-c3ccc(O)cc3)oc12 [bilobetin] showed an IC50 of 12.9 µM.
